From PMC10669340, “Bioactive Compounds from an Endophytic Pezicula sp. Showing Antagonistic Effects against the Ash Dieback Pathogen” (Biomolecules, 2023)
Values after ≈ are worked out from the molar mass of the structure shown. Where two headings read alike, the source gives them in different places.

What was measured:
[1] = MTT cytotoxicity assay; assay type: cell-based; conditions: read-out: Cytotoxic activity (IC50)
Experimental: (§1) The in vitro cytotoxicity assay was performed using the MTT (3-(4,5-dimethylthiayol-2-yl)-2,5-diphenyltetrazolium bromide) test in 96-well microtiter plates as previously described.

[2] = system: H. fraxineus (isolate RH02-T6-B4-2); experiment: Agar disc diffusion assay; assay type: cell-based, Hymenoscyphus fraxineus; conditions: 6 mm disc, 7 days, 21 °C, n.i.: no inhibition
Experimental: The antifungal activity of the isolated compounds against H. fraxineus was assessed by the disc diffusion method using 9 cm diameter petri dishes as previously described […] Three sterile filter paper discs per plate were gently placed on dried potato–dextrose agar. The fungicide nystatin was applied as the positive control (20 and 50 µg/paper disc) and methanol as the negative control (10 µL/paper disc). The test plates were incubated at 21 °C for 7 days, the inhibition diameters were measured, and the activity was evaluated compared to nystatin.
Figure S44: Agar disc (6 mm diam.) diffusion assay of compound CJ-17,572 (1) against H. fraxineus RH02-T6-B4-2, grown in 9-cm petri dishes on agar-based PD
medium with H. fraxineus, N - positive control nystatin, M - negative control methanol, CJ – 1.
Table S1. Antifungal activity of the compounds 1-6. n.i.: no inhibition, n.t.: not tested.
Compounds Amount ( µg/paper disc)
Peziculastatin n.t. n.i. 8 mm
Mycorrhizin A 19 mm 31 mm n.t.
Cryptosporioptide A n.t. n.i. n.i.
Cryptosporioptide B n.t. n.i. 8 mm
Cryptosporioptide C n.t. n.i. n.i.
Nystatin 21 mm 24 mm n.t.

[3] = system: Chromobacterium violaceum DSM 30191; experiment: Antimicrobial serial dilution assay (MIC); assay type: cell-based; conditions: n.i.: no inhibition
Experimental: (§2) The antimicrobial activity (minimum inhibitory concentration, MIC) of the compounds was determined against Acinetobacter baumannii DSM 30008, Bacillus subtilis DSM 10, Chromobacterium violaceum DSM 30191, Escherichia coli DSM 1116, Mycobacterium smegmatis ATCC 700084, Pseudomonas aeruginosa PA14, Staphylococcus aureus DSM 346, Candida albicans DSM1665, Mucor hiemalis DSM 2656, Pichia anomala DSM 6766, Rhodotorula glutinis DSM 10134 and Schizosaccharomyces pombe DSM 70572 in a serial dilution assay as previously described.

[4] = system: Schizosaccharomyces pombe DSM 70572; experiment: Antimicrobial serial dilution assay (MIC); assay type: cell-based; conditions: Schizosaccharomyces pombe DSM 70572; n.i.: no inhibition
Experimental: as §2

[5] = system: Pichia anomala DSM 6766; experiment: Antimicrobial serial dilution assay (MIC); assay type: cell-based; conditions: Pichia anomala DSM 6766; n.i.: no inhibition
Experimental: as §2

[6] = system: Escherichia coli DSM 1116; experiment: Antimicrobial serial dilution assay (MIC); assay type: cell-based; conditions: n.i.: no inhibition
Experimental: as §2

[7] = system: Rhodotorula glutinis DSM 10134; experiment: Antimicrobial serial dilution assay (MIC); assay type: cell-based; conditions: Rhodotorula glutinis DSM 10134, n.i.: no inhibition
Experimental: as §2

[8] = system: Pseudomonas aeruginosa PA14; experiment: Antimicrobial serial dilution assay (MIC); assay type: cell-based; conditions: n.i.: no inhibition
Experimental: as §2

[9] = system: Acinetobacter baumannii DSM 30008; experiment: Antimicrobial serial dilution assay (MIC); assay type: cell-based; conditions: n.i.: no inhibition
Experimental: as §2

[10] = system: Mycobacterium smegmatis ATCC 700084; experiment: Antimicrobial serial dilution assay (MIC); assay type: cell-based; conditions: Mycobacterium smegmatis ATCC 700084; n.i.: no inhibition
Experimental: as §2

[11] = system: Candida albicans DSM1665; experiment: Antimicrobial serial dilution assay (MIC); assay type: cell-based; conditions: n.i.: no inhibition
Experimental: as §2

[12] = system: Mucor hiemalis DSM 2656; experiment: Antimicrobial serial dilution assay (MIC); assay type: cell-based
Experimental: as §2

[13] = system: Staphylococcus aureus DSM 346; experiment: Antimicrobial serial dilution assay (MIC); assay type: cell-based; conditions: Staphylococcus aureus DSM 346, n.i.: no inhibition; for MIC: DSM346, read-out: Minimum inhibitory concentration (MIC)
Experimental: as §2

[14] = system: Bacillus subtilis DSM 10; experiment: Antimicrobial serial dilution assay (MIC); assay type: cell-based; conditions: Bacillus subtilis DSM 10, n.i.: no inhibition; for MIC: DSM10, read-out: Minimum inhibitory concentration (MIC)
Experimental: as §2

[15] = system: panel of bacteria and fungi; experiment: Antimicrobial serial dilution assay, whole panel (summary statements); assay type: cell-based
Experimental: as §2

[16] = system: Candida albicans DSM 11225 biofilm; experiment: Biofilm assay, inhibition of biofilm formation; assay type: cell-based; conditions: (/) no activity
Experimental: The stock of fungal pathogen Candida albicans DSM 11225 from −20 °C was cultured in 25 mL YPD (Yeast extract Peptone Dextrose; dextrose 20 g/L, peptone 20 g/L, yeast extract 10 g/L) medium in a 250 mL flask at 30 °C with shaking 100 rpm for 18 h. Turbidity of the broth was measured and diluted to match the turbidity of a 0.05 McFarland standard in RPMI 1640 medium (Gibco, New York, NY, USA, Thermo Fisher Scientific). Afterwards, 150 μL of the fungal dispersion was added into each well of a 96-well microtiter plate (Falcon no. 351172, Thermo Fisher Scientific) and further incubated for 90 min. The supernatant was removed, and the plate was washed once by using PBS buffer. Compounds were serially diluted in 150 μL in fresh medium to concentrations of 250–2 μg/mL. Staining and analysis were conducted as previously described. Methanol (2.5%) and farnesol (250–2 μg/mL) were used as solvent and positive controls. Error bars indicate SD with duplicates in two biological repeats.

[17] = system: Staphylococcus aureus DSM 1104 preformed biofilm; experiment: Biofilm assay, dispersal of preformed biofilm; assay type: cell-based; parameters: Antibiofilm activity, preformed S. aureus: unit not given here; conditions: for Antibiofilm activity, preformed S. aureus: (/) no activity; for efficacy of biofilm eradication, preformed biofilms of S. aureus: concentrations between 15.6 µg/mL–125 µg/mL
Experimental: Staphylococcus aureus DSM 1104 from −20 °C stock was cultured in 25 mL CASO (Casein–Peptone Soymeal–Peptone; peptone from casein 15 g/L, peptone from soy flour 5 g/L, NaCl 5 g/L, pH 7.3) medium at 37 °C at 100 rpm in 250 mL for 20 h. The precultured suspension of S. aureus was adjusted so that its OD600 matched the turbidity of a 0.001 McFarland standard. S. aureus was incubated in 96-well tissue microtiter plates (TPP tissue culture ref.no 92196, Switzerland) for 24 h at 150 rpm in […] CASO medium with 4% glucose broth. The supernatant was removed from the wells and 150 μL of the respective media (fresh) was added to the wells, together with the serially diluted compounds (250–2 μg/mL). The plates were incubated for a further 24 h at 37 °C. Staining of the biofilms was carried out as described previously. Standard deviation (SD) of two repeats with duplicates each were 10% or less. Methanol (2.5%) and microporenic acid A (250–2 μg/mL) were used as solvent and positive controls. Error bars indicate SD with duplicates in two biological repeats.

[18] = system: panel of mammalian cell lines; experiment: MTT cytotoxicity assay, panel (summary statements); assay type: cell-based; conditions: 4–6 only KB3.1 and L929
Experimental: as §1

[19] = DSM2656, Mucor hiemalis DSM 2656, n.i.: no inhibition, read-out: Minimum inhibitory concentration (MIC)

Row | SMILES | Antifungal activity, inhibition diameter ([2]; 50 µg/paper disc) | Antifungal activity, inhibition diameter ([2]; 100 µg/paper disc) | Minimum inhibitory concentration (MIC) [3] | Minimum inhibitory concentration (MIC) [4] | Minimum inhibitory concentration (MIC) [5] | Minimum inhibitory concentration (MIC) [6] | Minimum inhibitory concentration (MIC) [8] | Minimum inhibitory concentration (MIC) [9] | Minimum inhibitory concentration (MIC) [10] | Minimum inhibitory concentration (MIC) [11] | MIC [12, 19] | MIC [13] | MIC [14] | antimicrobial activity against the tested microorganisms (in words) [15] | Antibiofilm activity, C. albicans ([16]; 62.5 µg/mL) | Antibiofilm activity, C. albicans ([16]; 125 µg/mL) | Antibiofilm activity, C. albicans ([16]; 250 µg/mL) | Antibiofilm activity, preformed S. aureus ([17]; 7.8 µg/mL) | Antibiofilm activity, preformed S. aureus ([17]; 15.6 µg/mL) | Minimum inhibitory concentration (MIC) [7] | also measured
1 | CCCCCCC(C)/C=C/C=C/C=C/C(=O)N[C@H](C(=O)O)[C@H](O)c1ccccc1O (relative stereo) [Compound 2, peziculastatin] | n.i. | 8 mm | n.i. | n.i. | n.i. | n.i. | n.i. | n.i. | n.i. | n.i. | 33.3 µg/mL (≈ 80.1 µM) | 16.6 µg/mL (≈ 39.9 µM) | 33.3 µg/mL (≈ 80.1 µM) | moderate to weak antifungal activity | – | – | – | – | – | – | IC50 ([1]; human, A431 squamous cell carcinoma cells): 53 µM; IC50 ([1]; human, A549 lung carcinoma cells): 41 µM; IC50 ([1]; human, KB3.1 endocervical adenocarcinoma cells, n.c.: no cytotoxicity): 17 µM; IC50 ([1]; human, MCF-7 breast adenocarcinoma cells): 11 µM; IC50 ([1]; mouse, L929 fibroblast cells, n.c.: no cytotoxicity): 53 µM; MIC ([7]; DSM10134, read-out: Minimum inhibitory concentration (MIC)): 33.3 µg/mL (≈ 80.1 µM)
2 | CCC(C(=O)O)C(=O)OC1C2(C)Oc3ccc(-c4ccc5c(c4O)C(=O)C4=C(O)C6OC6(C)C(OC(=O)CC(=O)O)C4(C)O5)c(O)c3C(=O)C2=C(O)C2OC21C (stereo not shown) [Compound 5, Cryptosporioptide B] | n.i. | 8 mm | n.i. | n.i. | n.i. | n.i. | n.i. | n.i. | n.i. | n.i. | – | – | – | – | 49 | 50 | 74 | 54 | 75 | n.i. | Antibiofilm activity, preformed S. aureus ([17]; 62.5 µg/mL): 83; Antibiofilm activity, preformed S. aureus ([17]; 125 µg/mL): 81; Antibiofilm activity, preformed S. aureus ([17]; 250 µg/mL): 49; efficacy of biofilm eradication, preformed biofilms of S. aureus [17]: 70–80%; Minimum inhibitory concentration (MIC) ([12]; Mucor hiemalis DSM 2656, n.i.: no inhibition): n.i.; Minimum inhibitory concentration (MIC) [13]: n.i.; Minimum inhibitory concentration (MIC) [14]: n.i.
3 | CCC(C(=O)O)C(=O)OC1C2(C)Oc3ccc(-c4ccc5c(c4O)C(=O)C4=C(O)C6OC6(C)C(OC(=O)C(CC)C(=O)O)C4(C)O5)c(O)c3C(=O)C2=C(O)C2OC21C (stereo not shown) [Compound 6, Cryptosporioptide C] | n.i. | n.i. | n.i. | n.i. | n.i. | n.i. | n.i. | n.i. | n.i. | n.i. | – | – | – | – | 40 | 62 | 78 | 68 | 72 | n.i. | Antibiofilm activity, preformed S. aureus ([17]; 2 µg/mL): 39; Antibiofilm activity, preformed S. aureus ([17]; 3.9 µg/mL): 49; Antibiofilm activity, preformed S. aureus ([17]; 31.3 µg/mL): 78; Antibiofilm activity, preformed S. aureus ([17]; 62.5 µg/mL): 78; Antibiofilm activity, preformed S. aureus ([17]; 125 µg/mL): 77; Antibiofilm activity, preformed S. aureus ([17]; 250 µg/mL): 23; efficacy of biofilm eradication, preformed biofilms of S. aureus [17]: 70–80%; dispersal effects on preformed biofilms of S. aureus ([17]; even up to 2 µg/mL): 40%; MIC ([12]; Mucor hiemalis, DSM2656, read-out: Minimum inhibitory concentration (MIC)): 66.6 µg/mL (≈ 82.6 µM); Minimum inhibitory concentration (MIC) [13]: n.i.; Minimum inhibitory concentration (MIC) [14]: n.i.
4 | COC1=C(C(=O)[C@@]2(C)[C@@H](C)C=C[C@H]3C[C@@H](C)CC[C@@H]32)C(=O)N(C)[C@H]1[C@@H](C)O [Compound 7, 4′-methyl-CJ-17,572] | – | – | n.i. | n.i. | n.i. | n.i. | n.i. | n.i. | n.i. | n.i. | 66.6 µg/mL (≈ 177 µM) | 33.3 µg/mL (≈ 88.7 µM) | 8.3 µg/mL (≈ 22.1 µM) | weak antimicrobial activity | – | – | – | – | – | n.i. | IC50 ([1]; human, A431): 24 µM; IC50 ([1]; human, A549): 10 µM; IC50 ([1]; human, KB3.1, n.c.: no cytotoxicity): 6.4 µM; IC50 ([1]; human, MCF-7): 9.6 µM; IC50 ([1]; human, PC-3): 9.1 µM; IC50 ([1]; human, SKOV-3): 14 µM; IC50 ([1]; mouse, L929, n.c.: no cytotoxicity): 32 µM; cytotoxicity against the tested cell lines (in words) [18]: active against all the tested cell lines
